Read-outs that look alike come from different tables or passages of the source.
Tests used:
Assay type in all cases: biochemical
[1] = biological target: PKA (Homo sapiens, UniProt P17612); experiment: Kinase screen: PKA assay
Procedure: (§1) Generally, the same procedure was used for all assays. Since the total assay volume was 25.5 microliters, 0.5 microliters of inhibitors at 51× assay concentration were added to the plates before any other addition.
(§2) The basic procedure was to add 0.5 microliters inhibitor/control in DMSO to plate. Fifteen microliters of enzyme/substrate/buffer mix were added and incubated for 5 min. Ten microliters MgATP at the relevant concentration were added and incubated for 30 min. The assay was stopped by adding 5 microliters of 3% orthophosphoric acid. The assay was transferred to a p81 filter plate and read in a scintillation counter of 30 sec/well. Note that this assay procedure was not followed for MKK1, which instead involved a two-step assay, and PKC alpha, which required the addition of lipid vesicles.
PKA assay: PKA (5-20 mU diluted in 20 mM MOPS pH 7.5, 1 mM EDTA, 0.01% Brij35, 0.1% b-mercaptoethanol, 1 mg/ml BSA) was assayed against Kemptide (LRRASLG) (SEQ ID NO: 6) in a final volume of 25.5 μl containing 8 mM MOPS pH 7.5, 0.2 mM EDTA, 30 μM substrate peptide, 10 mM magnesium acetate and 0.005 mM [33P-g-ATP] (50-1000 cpm/pmole) and incubated for 30 min at room temperature. Assays were stopped by addition of 5 μl of 0.5 M (3%) orthophosphoric acid and then harvested onto P81 Unifilter plates with a wash buffer of 50 mM orthophosphoric acid.

[2] = biological target: CHK2 (Homo sapiens, UniProt O96017); experiment: Kinase screen: CHK2 assay
Sequence of CHK2 (O96017 whole entry, species assumed): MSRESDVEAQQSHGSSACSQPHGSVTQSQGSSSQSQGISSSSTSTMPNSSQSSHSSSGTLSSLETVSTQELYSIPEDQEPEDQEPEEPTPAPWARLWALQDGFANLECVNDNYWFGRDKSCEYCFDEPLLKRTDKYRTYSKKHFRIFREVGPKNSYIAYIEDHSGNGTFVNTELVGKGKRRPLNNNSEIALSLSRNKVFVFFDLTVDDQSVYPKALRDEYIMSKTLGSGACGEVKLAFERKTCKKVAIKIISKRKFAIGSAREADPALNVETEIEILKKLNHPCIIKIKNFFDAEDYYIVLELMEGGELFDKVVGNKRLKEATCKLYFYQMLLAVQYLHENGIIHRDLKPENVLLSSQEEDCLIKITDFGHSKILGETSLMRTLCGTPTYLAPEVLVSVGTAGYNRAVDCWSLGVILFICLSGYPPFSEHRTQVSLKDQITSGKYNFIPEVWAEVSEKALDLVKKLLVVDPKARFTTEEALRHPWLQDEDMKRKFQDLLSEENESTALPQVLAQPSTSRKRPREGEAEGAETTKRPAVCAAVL
Procedure: as §1, §2
CHK2 assay: CHK2 (5-20 mU diluted in 20 mM MOPS pH 7.5, 1 mM EDTA, 0.1% b-mercaptoethanol, 0.01% Brij-35, 5% glycerol, 1 mg/ml BSA) was assayed against CHKtide substrate peptide ([…]) (SEQ ID NO: 12) in a final volume of 25.5 μl containing 8 mM MOPS pH 7.0, 0.2 mM EDTA, 200 μM CHKtide, 10 mM magnesium acetate and 0.02 mM [33P-g-ATP] (50-1000 cpm/pmole) and incubated for 30 min at room temperature Assays were stopped by addition of 5 μl of 0.5 M (3%) orthophosphoric acid and then harvested onto P81 Unifilter plates with a wash buffer of 50 mM orthophosphoric acid.

[3] = biological target: PIM2 (Homo sapiens, UniProt Q9P1W9); experiment: Kinase screen: PIM2 assay
Sequence of PIM2 (Q9P1W9 whole entry, species assumed): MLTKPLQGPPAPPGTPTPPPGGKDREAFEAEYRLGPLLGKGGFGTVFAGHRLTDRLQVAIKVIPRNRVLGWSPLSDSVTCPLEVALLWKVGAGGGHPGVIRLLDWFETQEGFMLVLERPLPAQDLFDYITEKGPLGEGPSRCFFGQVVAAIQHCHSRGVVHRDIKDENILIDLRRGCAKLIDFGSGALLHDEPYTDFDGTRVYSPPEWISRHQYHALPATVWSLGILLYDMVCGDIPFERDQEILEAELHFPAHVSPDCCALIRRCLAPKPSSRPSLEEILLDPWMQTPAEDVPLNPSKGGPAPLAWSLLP
Procedure: as §1, §2
PIM2 assay: 5-20 mU of PIM2 (diluted in 50 mM Tris (pH 7.5), 0.1 mM EGTA, 1 mg/ml BSA, 0.1%, b-Mercaptoethanol) was assayed against substrate peptide ([…]) (SEQ ID NO: 23) in a final volume of 25.5 μl containing 50 mM Tris (pH 7.5), 0.1 mM EGTA, 0.5 mM CaCl2, 0.3 μM calmodulin, 0.1%, b-Mercaptoethanol, 300 μM substrate peptide, 10 mM magnesium acetate and 0.005 mM [33P-g-ATP] (500-1000 cpm/pmole) and incubated for 30 mins at room temperature. Assays were stopped by addition of 5 μl of 0.5M (3%) orthophosphoric acid. Assays were harvested onto P81 Unifilter plates using a wash buffer of 50 mM orthophosphoric acid.

[4] = biological target: T1, EPH-B3 (Homo sapiens, UniProt P54753); experiment: Kinase screen: EPH-B3 assay; conditions: 10 micromolar compound; for remaining activity at 10 µM: read-out: mean activity remaining (as a percentage of the original activity), EPH-B3
T1 sequence (P54753 34-998): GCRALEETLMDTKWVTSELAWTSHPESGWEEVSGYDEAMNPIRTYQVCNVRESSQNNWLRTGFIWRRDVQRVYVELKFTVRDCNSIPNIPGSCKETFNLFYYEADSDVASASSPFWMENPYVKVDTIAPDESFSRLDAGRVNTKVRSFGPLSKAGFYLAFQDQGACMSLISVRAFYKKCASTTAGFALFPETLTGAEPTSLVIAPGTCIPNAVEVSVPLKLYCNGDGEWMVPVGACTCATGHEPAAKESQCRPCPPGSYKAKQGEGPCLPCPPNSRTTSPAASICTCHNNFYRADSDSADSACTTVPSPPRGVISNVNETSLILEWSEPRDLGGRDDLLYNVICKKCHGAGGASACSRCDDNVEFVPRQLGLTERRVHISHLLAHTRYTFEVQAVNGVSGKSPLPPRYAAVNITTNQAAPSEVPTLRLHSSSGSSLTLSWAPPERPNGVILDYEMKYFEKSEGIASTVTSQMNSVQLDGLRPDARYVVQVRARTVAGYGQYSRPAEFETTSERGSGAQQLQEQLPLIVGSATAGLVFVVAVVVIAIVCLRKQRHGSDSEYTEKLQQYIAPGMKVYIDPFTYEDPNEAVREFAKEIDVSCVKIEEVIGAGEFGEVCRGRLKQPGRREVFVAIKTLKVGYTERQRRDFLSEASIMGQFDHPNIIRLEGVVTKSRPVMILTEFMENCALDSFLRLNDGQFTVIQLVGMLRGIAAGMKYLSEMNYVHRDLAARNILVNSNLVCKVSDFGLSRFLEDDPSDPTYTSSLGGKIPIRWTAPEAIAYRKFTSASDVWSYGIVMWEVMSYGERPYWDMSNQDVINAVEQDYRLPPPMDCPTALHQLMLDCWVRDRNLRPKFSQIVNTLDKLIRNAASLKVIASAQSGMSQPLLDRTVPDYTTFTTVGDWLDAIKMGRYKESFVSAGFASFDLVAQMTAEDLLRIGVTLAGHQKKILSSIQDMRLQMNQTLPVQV
Procedure: as §1, §2
EPH-B3 assay: EPH-B3 (5-20 mU diluted in 50 mM Tris pH 7.5, 0.1 mM EGTA, 1 mg/ml BSA) was assayed against a substrate peptide (Poly Glut Tyr) in a final volume of 25.5 μl containing 50 mM Tris pH 7.5, 1 mg/ml substrate peptide, 10 mM magnesium acetate and 0.005 mM [33P-g-ATP] (50-1000 cpm/pmole) and incubated for 30 min at room temperature. Assays were stopped by addition of 5 μl of 0.5 M (3%) orthophosphoric acid and then harvested onto P81 Unifilter plates with a wash buffer of 50 mM orthophosphoric acid.

[5] = 10 micromolar compound, read-out: mean activity remaining (as a percentage of the original activity), PKA
[6] = 10 micromolar compound, read-out: mean activity remaining (as a percentage of the original activity), CHK 2
[7] = 10 micromolar compound, read-out: mean activity remaining (as a percentage of the original activity), PIM2

Structure (SMILES)	remaining activity at 10 µM [1, 5]	remaining activity at 10 µM [4]	remaining activity at 10 µM [2, 6]	remaining activity at 10 µM [3, 7]	other results
CC(C)c1cnn2c(NCc3ccccc3)cc(NCCCCCCCN)nc12 [BS-181]	–	–	–	–	remaining activity at 10 µM ([1]; PKA, 10 μM, read-out: Mean Remaining Enzyme Activity (%)): 110%; remaining activity at 10 µM ([2]; CHK2, 10 μM, read-out: Mean Remaining Enzyme Activity (%)): 36%; remaining activity at 10 µM ([3]; PIM2, 10 μM, read-out: Mean Remaining Enzyme Activity (%)): 102%
C=C[C@H](CO)Nc1cc(NCc2ccccc2)n2ncc(C(C)C)c2n1 [ICEC0065]	107%	83%	81%	93%	–
CC[C@H](CO)Nc1cc(NCc2ccccc2)n2ncc(C(C)C)c2n1 [ICEC0067]	93%	79%	70%	92%	–
CC(C)c1cnn2c(NCc3ccccc3)cc(N[C@@H](CO)[C@H](O)CO)nc12 [ICEC0318, (3S)-3-(7-(Benzylamino)-3-isopropylpyrazolo[1,5-a]pyrimidin-5-ylamino)butane-1,2,4-triol]	93%	72%	61%	94%	–
CC(C)c1cnn2c(NCc3ccccc3F)cc(NCCCCCN)nc12 [ICEC-0232]	–	–	–	–	mean activity remaining (as a percentage of the original activity), PKA ([1]; 10 micromolar compound): 96%; mean activity remaining (as a percentage of the original activity), EPH-B3 [4]: 88%; mean activity remaining (as a percentage of the original activity), CHK 2 ([2]; 10 micromolar compound): 15%; mean activity remaining (as a percentage of the original activity), PIM2 ([3]; 10 micromolar compound): 102%

— US8067424B2, “Selective inhibitors for cyclin-dependent kinases” (Emory University, priority 2007, dated 2011)
